Test results published in US20240124444A1 (Celgene Corporation, priority 2020, published 2024).
Read-outs that look alike come from different tables or passages of the source.

System: C. parvum strain UGA1
Experiment: C. parvum growth inhibition assay (Nluc luminescence in HCT-8 cells)
Format: cell-based, Cryptosporidium parvum
Details: for EC50: C. parvum growth inhibition in HCT-8 cells, 48 hours, 6 concentrations 10-0.04 μM; for inhibition at 1 µM / inhibition at 10 µM: HCT-8; for inhibition at 1 µM: read-out: % inh @ 1 uM C. parvum; for inhibition at 10 µM: read-out: % inh @ 10 uM C. parvum
Experimental: C. parvum GROWTH INHIBITION ASSAYS
C. parvum growth inhibition was performed as described in Hulverson M A, Vinayak S, Choi R, Schaefer D A, Castellanos-Gonzalez A, Vidadala R S R, Brooks C F, Herbert G T, Betzer D P, Whitman G R, Sparks H N, Arnold S L M, Rivas K L, Barrett L K, White A C Jr, Maly D J, Riggs M W, Striepen B, Van Voorhis W C, Ojo K K. Bumped-Kinase Inhibitors for Cryptosporidiosis Therapy. J Infect Dis. 2017 Apr. 15; 215(8):1275-1284.
C. parvum strain UGA1 […] (ATCC, Manassas, VA) were prepared as described below. HCT-8 cells were inoculated onto 96-well plates were grown for 48 hours to 90%-100% confluence. C. parvum oocysts were then incubated for 10 minutes in 10% bleach at room temperature and washed with Dulbecco's phosphate-buffered saline. One thousand oocysts per well were applied to plates with Roswell Park Memorial Institute 1640 (RPMI) medium supplemented with 10% horse serum and 1% penicillin/streptomycin. Compounds of Formula (I), Formula (II), and Formula (III) were added to the plates at different concentrations and the plates were incubated for 48 hours. Following the incubation, the monolayers were lysed for 1 hour before a luciferase reagent was added, and relative luminescence units were determined.
For certain compounds of Formula I, Formula II, and Formula III, EC50 values were calculated using curves calculated from Prism after analysis of C. parvum growth inhibition at 6 different concentrations: 10, 3.33, 1.11, 0.37, 0.12, and 0.04 μM. […] For certain compounds of Formula I, Formula II, and Formula III, single point inhibition values of 0-33% (activity level D), between 33% and 66% (activity level E), and between 67% and 100% (activity level F) are also shown in Table 1 below.

[1] = Cryptosporidium parvum, HCT-8, 48 h
[2] = Cryptosporidium parvum, single point inhibition @ 1 uM
[3] = Cryptosporidium parvum, single point inhibition @ 10 uM
[4] = Cryptosporidium parvum, single point inhibition at 1 uM
[5] = Cryptosporidium parvum, single point inhibition at 10 uM

SMILES	inhibition at 1 µM [2]	inhibition at 10 µM [3]	inhibition at 1 µM [4]	inhibition at 10 µM [5]	also measured
Cn1c(-c2ccnc(NCC(F)(F)F)n2)cc2cnc(N[C@H]3CCCOC3)cc21 (racemic) [Example 36, 1-Methyl-N-[rac-(3s)-tetrahydropyran-3-yl]-2-[2-(2,2,2-trifluoroethylamino)pyrimidin-4-yl]pyrrolo[3,2-c]pyridin-6-amine]	33 to 66%	67 to 100%			EC50 [1]: > 1 µM
Cc1cc(-c2cc3cnc(NC4CCOC4)cc3[nH]2)ccn1 (stereo in doubt) [Example 52, (S)-2-(2-methylpyridin-4-yl)-N-(tetrahydrofuran-3-yl)-1H-pyrrolo[3,2-c]pyridin-6-amine]					EC50 [1]: > 1 µM
Cc1nn(C)cc1C(=O)Nc1cc2[nH]c(-c3ccnc(OC(C)C(F)(F)F)n3)cc2cn1 (stereo in doubt) [Example 136, (S)-1,3-dimethyl-N-(2-(2-(1,1,1-trifluoropropan-2-yloxy)pyrimidin-4-yl)-1H-pyrrolo[3,2-c]pyridin-6-yl)-1H-pyraozle-4-carboxamide]	0 to 33%	67 to 100%			
Cn1c(-c2ccnc(NCC(F)(F)F)n2)cc2cnc(NC(=O)c3cnn(C4CCOC4)c3)cc21 (stereo in doubt) [Example 142, (R)-N-(1-methyl-2-(2-(2,2,2-trifluoroethylamino)pyrimidin-4-yl)-1H-pyrrolo[3,2-c]pyridin-6-yl)-1-(tetrahydrofuran-3-yl)-1H-pyrazole-4-carboxamide]	67 to 100%	67 to 100%			
Cc1cc(-c2cc3cnc(NC(=O)OC4CCOC4)cc3[nH]2)ccn1 (stereo in doubt) [Example 152, (R)-tetrahydrofuran-3-yl 2-(2-methylpyridin-4-yl)-1H-pyrrolo[3,2-c]pyridin-6-ylcarbamate]	0 to 33%	67 to 100%			
CCOc1nccc(-c2cc3cnc(NC(=O)[C@@H]4C[C@H]4C)cc3[nH]2)n1 (stereo in doubt) [Example 153, (1R,2R)-N-(2-(2-ethoxypyrimidin-4-yl)-1H-pyrrolo[3,2-c]pyridin-6-yl)-2-methylcyclopropanecarboxamide]	0 to 33%	67 to 100%			
COc1nccc(-c2cc3cnc(NC(=O)c4cnn(CC5CCOC5)c4)cc3[nH]2)n1 (stereo in doubt) [Example 156, (S)-N-(2-(2-methoxypyrimidin-4-yl)-1H-pyrrolo[3,2-c]pyridin-6-yl)-1-((tetrahydrofuran-3-yl)methyl)-1H-pyrazole-4-carboxamide]	0 to 33%	67 to 100%			
O=C(Nc1cc2[nH]c(-c3ccnc(OCCCF)n3)cc2cn1)c1cnn(CC2CCCO2)c1 (stereo in doubt) [Example 171, (S)-N-(2-(2-(3-fluoropropoxy)pyrimidin-4-yl)-1H-pyrrolo[3,2-c]pyridin-6-yl)-1-((tetrahydrofuran-2-yl)methyl)-1H-pyrazole-4-carboxamide]	0 to 33%	67 to 100%			
COc1nccc(-c2cc3cnc(NC(=O)c4cnn(CC5CCOC5)c4C)cc3[nH]2)n1 (stereo in doubt) [Example 179, (S)-N-(2-(2-methoxypyrimidin-4-yl)-1H-pyrrolo[3,2-c]pyridin-6-yl)-5-methyl-1-((tetrahydrofuran-3-yl)methyl)-1H-pyrazole-4-carboxamide]	0 to 33%	67 to 100%			
Cc1cc(-c2cc3cnc(NC(=O)C4CCCO4)cc3[nH]2)ccn1 (stereo in doubt) [Example 182, (S)-N-(2-(2-methylpyridin-4-yl)-1H-pyrrolo[3,2-c]pyridin-6-yl)tetrahydrofuran-2-carboxamide]	0 to 33%	67 to 100%			
COc1nccc(-c2cc3cnc(NC(=O)c4cnn(CC5CCOC5)c4)cc3[nH]2)n1 (stereo in doubt) [Example 184, (R)-N-(2-(2-methoxypyrimidin-4-yl)-1H-pyrrolo[3,2-c]pyridin-6-yl)-1-((tetrahydrofuran-3-yl)methyl)-1H-pyrazole-4-carboxamide]	0 to 33%	67 to 100%			
COc1nccc(-c2cc3cnc(NC(=O)c4cnn(CC5CCCO5)c4)cc3[nH]2)n1 (stereo in doubt) [Example 231, (R)-N-(2-(2-methoxypyrimidin-4-yl)-1H-pyrrolo[3,2-c]pyridin-6-yl)-1-((tetrahydrofuran-2-yl)methyl)-1H-pyrazole-4-carboxamide]			33 to 66%	33 to 66%	
O=C(Nc1cc2[nH]c(-c3ccnc(OCC(F)F)n3)cc2cn1)c1cnn(CC2CCCO2)c1 (stereo in doubt) [Example 234, (S)-N-(2-(2-(2,2-difluoroethoxy)pyrimidin-4-yl)-1H-pyrrolo[3,2-c]pyridin-6-yl)-1-((tetrahydrofuran-2-yl)methyl)-1H-pyrazole-4-carboxamdie]			33 to 66%	33 to 66%	
COc1nccc(-c2cc3cnc(NC(=O)c4cn(CC5CCOC5)nc4C)cc3[nH]2)n1 (stereo in doubt) [Example 246, (R)-N-(2-(2-methoxypyrimidin-4-yl)-1H-pyrrolo[3,2-c]pyridin-6-yl)-3-methyl-1-((tetrahydrofuran-3-yl)methyl)-1H-pyrazole-4-carboxamide]			0 to 33%	0 to 33%	
C[C@H]1C[C@@H]1C(=O)Nc1cc2[nH]c(-c3ccnc(C(F)(F)F)n3)cc2cn1 (stereo in doubt) [Example 262, (1S,2S)-2-methyl-N-(2-(2-(trifluoromethyl)pyrimidin-4-yl)-1H-pyrrolo[3,2-c]pyridin-6-yl)cyclopropanecarboxamide]			0 to 33%	0 to 33%	
Cc1cc(-c2cc3cnc(NC(=O)C(C)O)cc3[nH]2)ccn1 (stereo in doubt) [Example 263, (R)-2-hydroxy-N-(2-(2-methylpyridin-4-yl)-1H-pyrrolo[3,2-c]pyridin-6-yl)propanamide]			0 to 33%	0 to 33%	
Cc1cc(-c2cc3cnc(NC(=O)C(C)O)cc3[nH]2)ccn1 (stereo in doubt) [Example 307, (S)-2-hydroxy-N-(2-(2-methylpyridin-4-yl)-1H-pyrrolo[3,2-c]pyridin-6-yl)propanamide]			0 to 33%	0 to 33%	
CC(Oc1nccc(-c2cc3cnc(NC(=O)c4cnn(C)c4)cc3[nH]2)n1)C(F)(F)F (stereo in doubt) [Example 314, (R)-1-methyl-N-(2-(2-(1,1,1-trifluoropropan-2-yloxy)pyrimidin-4-yl)-1H-pyrrolo[3,2-c]pyridin-6-yl)-1H-pyrazole-4-carboxamide]			0 to 33%	0 to 33%	
CCOc1nccc(-c2cc3cnc(NC(=O)c4cn(CC5CCCO5)nc4C)cc3[nH]2)n1 (stereo in doubt) [Example 322, (S)-N-(2-(2-ethoxypyrimidin-4-yl)-1H-pyrrolo[3,2-c]pyridin-6-yl)-3-methyl-1-((tetrahydrofuran-2-yl)methyl)-1H-pyrazole-4-carboxamide]			0 to 33%	0 to 33%	
COc1nccc(-c2cc3cnc(NC(=O)c4cn(CC5CCOC5)nc4C)cc3[nH]2)n1 (stereo in doubt) [Example 326, (S)-N-(2-(2-methoxypyrimidin-4-yl)-1H-pyrrolo[3,2-c]pyridin-6-yl)-3-methyl-1-((tetrahydrofuran-3-yl)methyl)-1H-pyrazole-4-carboxamide]			0 to 33%	0 to 33%	
Cc1cc(-c2cc3cnc(NC4CCCOC4)cc3[nH]2)ccn1 (stereo in doubt) [Example 355, (S)-2-(2-methylpyridin-4-yl)-N-(tetrahydro-2H-pyran-3-yl)-1H-pyrrolo[3,2-c]pyridin-6-amine]					EC50 [1]: > 1 µM
Cc1cc(-c2cc3cnc(NC4CCCOC4)cc3[nH]2)ccn1 (stereo in doubt) [Example 356, (R)-2-(2-methylpyridin-4-yl)-N-(tetrahydro-2H-pyran-3-yl)-1H-pyrrolo[3,2-c]pyridin-6-amine]					EC50: < 0.5 µM
FC(F)(F)CNc1nccc(-c2cc3cnc(NC4CCOC4)cc3[nH]2)n1 (stereo in doubt) [Example 366, (R)-N-(tetrahydrofuran-3-yl)-2-(2-(2,2,2-trifluoroethylamino)pyrimidin-4-yl)-1H-pyrrolo[3,2-c]pyridin-6-amine]					EC50 [1]: < 0.5 µM
Cc1cc(-c2[nH]c3cc(NC4CCOC4)ncc3c2C)ccn1 (stereo in doubt) [Example 367, (S)-3-methyl-2-(2-methylpyridin-4-yl)-N-(tetrahydrofuran-3-yl)-1H-pyrrolo[3,2-c]pyridin-6-amine]					EC50 [1]: > 1 µM
